The text below walks through data of the Deep4Chem optical property database.

A short description of the data set: solvent given as SMILES.

As for `COc1ccc(/C=C/c2cc[n+]3ccc(/C=C/c4ccc(OC)cc4)cc3c2)cc1`, the absorption maximum (in CO) worked out at 444 nm.

Where the note is “in ClCCl”, `CCCCCCCCCCCCN1C(=O)c2c(c3ccc4cc(-c5ccc(N(C)C)cc5)c(OC)cc4c3c3c2ccc2cc(-c4ccc(N(C)C)cc4)c(OC)cc23)C1=O` returned an absorption maximum of 477 nm.

Regarding `C[C@@]12SC(Cl)=CC1=c1nc(-c3ccccc3)[nH]c1=C1C=C(Cl)S[C@]12C`, for the setting “in CC#N”, the absorption maximum is on record as 322 nm.

The molecule `CCCCCCCCN1C(=O)c2ccc3c4c(-c5ccc(N(c6ccccc6)c6ccccc6)cc5)cc5c6c(ccc(c7c(-c8ccc(N(c9ccccc9)c9ccccc9)cc8)cc(c2c37)C1=O)c64)C(=O)N(CCCCCCCC)C5=O` yielded an absorption maximum (in ClC(Cl)Cl) of 645 nm.

Consider `CSc1cc(-c2cc3cc4c5c(c3oc2=O)CCCN5CCC4)oc(=O)c1C#N`, for which the absorption maximum was 532 nm (in C1CCOC1); 537 nm (in CC#N); 536 nm (in CC(C)=O); 527 nm (in CCOC(C)=O); 545 nm (in CN(C)C=O); 537 nm (in CO). Further, the absorption maximum is, setting by setting: (in CS(C)=O) 549 nm; (in Cc1ccccc1) 527 nm; (in ClC(Cl)Cl) 538 nm; (in ClCCl) 541 nm.

In turn, `CC(C)[Si](C#Cc1c2c(=O)c3ccccc3c2c(C#C[Si](C(C)C)(C(C)C)C(C)C)c2c(=O)c3ccccc3c12)(C(C)C)C(C)C` returned an absorption maximum (in ClC(Cl)Cl) of 525 nm.

With `CCCCCCCCc1ccc(-n2c3c4ccccc4nnc3c3c2c2nnc4ccccc4c2n3-c2ccc(CCCCCCCC)cc2)cc1`, the absorption maximum (in Cc1ccccc1) is reported as 316 nm.

As to `O=c1oc2c(ccc3ccccc32)nc1-c1ccccc1`, the absorption maximum reads like this: (in CC#N) 396 nm; (in CCCCCC) 398 nm; (in CO) 396 nm; (in c1ccccc1) 396 nm.

As to `CCC(C)[Si](C#Cc1c2nc3c4ccccc4c(=O)c4ccccc4c3nc2c(C#C[Si](C(C)CC)(C(C)CC)C(C)CC)c2nc3c4ccccc4c(=O)c4ccccc4c3nc12)(C(C)CC)C(C)CC` (configuration not stated), under “in ClCCl”, the absorption maximum stood at 544 nm.

For `c1ccc(-c2cc(-c3ccccc3)cc(-c3ccc4c(c3)C3(c5cc(-c6cc(-c7ccccc7)cc(-c7ccccc7)c6)ccc5-4)c4ccccc4-c4c3c3c5ccccc5ccc3c3ccccc43)c2)cc1`, the absorption maximum (in C1CCOC1) is on record as 379 nm.

Molecule `CCCCCCCCCCCCn1cccc1/C=C/c1ccc(OCCCC)c2c(/C=C/c3cccn3CCCCCCCCCCCC)ccc(OCCCC)c12` came in with an absorption maximum (in Cc1ccccc1) of 375 nm.

With `O=C1O[B-]2(OC1=O)OC(c1ccc3ccccc3c1)=CC(c1ccc3ccccc3c1)=[O+]2`, the absorption maximum was found to be 435 nm (in CC#N) and 438 nm (in ClC(Cl)(Cl)Cl).

On to `O=[N+]([O-])c1ccc2c(c1)-c1c3c(c4c([n+]1[B-](F)(F)O2)CCc1ccccc1-4)CCc1ccccc1-3`, for which, where the note is “in ClCCl”, the absorption maximum is 343 nm.

As for `CC1(C)C(/C=C/C=C/c2cc3ccc(O)cc3oc2=O)=[N+](CCCS(=O)(=O)[O-])c2ccccc21`, the absorption maximum is listed as 491 nm (in CS(C)=O) and 564 nm (in O).

For `CCC1=C(C)C(=O)n2c1cc1c(C)c(CCC(=O)O)c(C)n1c2=O`, the absorption maximum (in CC#N) is 408 nm; the absorption maximum (in CC(C)=O) is 413 nm; the absorption maximum (in CO) was determined as 425 nm; the absorption maximum (in CS(C)=O) was determined as 426 nm; the absorption maximum (in ClC(Cl)Cl) amounted to 428 nm; the absorption maximum (in c1ccccc1) came to 421 nm.

As for `CCCCCCCCC1(CCCCCCCC)c2cc(C#CC#Cc3ccc(N(c4ccccc4)c4ccccc4)cc3)ccc2-c2ccc(C=O)cc21`, the absorption maximum reads like this: (in C1CCOC1) 377 nm; (in C1COCCO1) 383 nm; (in CC#N) 375 nm; (in CC(C)=O) 389 nm; (in CCCCCC) 378 nm; (in CCOC(C)=O) 381 nm. This molecule also gave an absorption maximum (in CN(C)C=O) of 382 nm; an absorption maximum (in CS(C)=O) of 382 nm; an absorption maximum (in Cc1ccccc1) of 387 nm; an absorption maximum (in ClC(Cl)Cl) of 375 nm; an absorption maximum (in ClCCl) of 365 nm.

For the molecule `CCCCC(CC)COc1ccc2nc(-c3ccc(-c4ccc(OC)cc4)s3)sc2c1` (configuration not stated), the absorption maximum (in ClCCl) is on record as 365 nm.

For the setting “in Cc1ccccc1”, `O=C1c2cc(-n3c4ccccc4c4ccccc43)c(-n3c4ccccc4c4ccccc43)cc2C(=O)N1c1ccccc1` came in with an absorption maximum of 388 nm.

Where the note is “in ClC(Cl)Cl”, `CC1(C)C(/C=C2\C(=O)C(/C=C3\Nc4ccccc4C3(C)C)=C2[O-])=[NH+]c2ccccc21` had an absorption maximum of 654 nm.

As for `CC[N+](CC)=c1ccc2cc3c(oc-2c1)-c1ccc(N(C)C)cc1CC3`, the absorption maximum stood at 612 nm (in CCO), 619 nm (in ClCCl) and 604 nm (in O).

With `COc1ccc(N(c2ccc(OC)cc2)c2sc(-c3ccc(Cl)cc3)nc2-c2ccccc2)cc1`, the absorption maximum (in ClC(Cl)Cl) turned out to be 393 nm.

With `COc1ccc2ncccc2c1`, the absorption maximum is reported as 329 nm (in CC#N), 329 nm (in CCCC#N) and 331 nm (in Cc1ccccc1).

With `COc1ccccc1`, the absorption maximum (in C1CCCCC1) is on record as 267.24 nm.

On to `CCCCCCCCOc1ccc2c3c(c4ccc(OCCCCCCCC)cc4c2c1)C(C)(C)c1ccccc1-3`, for which, for the setting “in C1CCCCC1”, the absorption maximum is 388 nm.

`N#C/C(=C/Nc1ccc(C#N)cc1)c1nc(-c2ccccc2)cs1`: the absorption maximum is on record as 372 nm (in CC#N); 373 nm (in CCO); 376 nm (in CN(C)C=O); 377 nm (in Cc1ccccc1); 375 nm (in ClCCl).

Regarding `c1ccc2c(c1)[nH]c1ncccc12`, the absorption maximum amounted to 338 nm (in CC#N) and 336 nm (in CCCCCC).

Where the note is “in Cc1ccccc1”, `CC1=CC(C)=[N+]2C1=C(c1ccc(C(=O)OC3C[C@@H]4CC[C@]3(C)C4(C)C)cc1)c1c(C)cc(C)n1[B-]2(F)F` (some centres not stated) showed an absorption maximum of 506 nm.

Consider `CCOC(=O)COc1ccc(/C=C/C2=C3c4ccccc4C(c4[nH]c(C)cc4C)=[N+]3[B-](F)(F)n3c(/C=C/c4ccc(OCC(=O)OCC)cc4)cc(C)c32)cc1`, for which the absorption maximum is, setting by setting: (in C1CCOC1) 676 nm; (in CC#N) 667 nm; (in CCCCCC) 674 nm; (in CO) 668 nm; (in Cc1ccccc1) 683 nm; (in ClCCl) 676 nm.

For the molecule `CCCCCCCCOc1ccc(C2=C3C(C)=C(C#Cc4ccc(B(c5c(C)cc(C)cc5C)c5c(C)cc(C)cc5C)cc4)C(C)=[N+]3[B-](F)(F)n3c(C)c(C#Cc4ccc(B(c5c(C)cc(C)cc5C)c5c(C)cc(C)cc5C)cc4)c(C)c32)cc1`, the absorption maximum turned out to be 568.51 nm (in CC#N), 580.18 nm (in CCCCCC) and 576 nm (in ClCCl).

As for `C=Cc1cc2cc3c(cc2oc1=O)OCO3`, under “in CC#N”, the absorption maximum turned out to be 363 nm.

For the molecule `CC(C)(C)c1ccc(Oc2c3c4c(cc(Oc5ccc(C(C)(C)C)cc5)c5c6c(Oc7ccc(C(C)(C)C)cc7)c(Oc7ccc(C(C)(C)C)cc7)c7c8c(cc(Oc9ccc(C(C)(C)C)cc9)c(c(c2Oc2ccc(C(C)(C)C)cc2)c45)c86)C(=O)OC7=O)C(=O)OC3=O)cc1`, the absorption maximum (in ClC(Cl)Cl) amounted to 571 nm.

As for `Cc1cc(C)c(-c2nnc(-c3ccc(-n4c5ccccc5c5ccccc54)cc3)o2)c(C)c1`, the absorption maximum (in Cc1ccccc1) came to 340 nm.
